Read-outs that look alike come from different tables or passages of the source. One block for each compound: values may come before it.
Experiments:
[1] = biological target: T1, α-glucosidase (Saccharomyces cerevisiae, UniProt P53341); assay: In vitro α-glucosidase activity assay (pNαGP, absorbance 405 nm); type: biochemical; settings: for inhibition at 250 µM: read-out: inhibition of α-glucosidase
T1 construct: purchased Sigma-Aldrich Co. (St. Louis, MI, USA)
Experimental: (§1) The inhibitors used in this study were purchased from the ChemDiv website. Unless otherwise stated, all other reagents used in this experiment were analytically pure reagents purchased from Sigma-Aldrich Co. (St. Louis, MI, USA).
The in vitro α-glucosidase activity assay was determined spectrophotometrically as previously described with only minor modifications. A phosphate-buffer solution at pH 6.8 was configured to obtain 0.5 U/mL of α-glucosidase and 0.6 mM of […] (pNαGP). […] Gradient dilution with phosphate-buffer solution was performed to obtain sample solutions of different concentrations. First, different concentrations of compounds (10 µL), enzyme solution (40 µL) and potassium phosphate buffer (100 µL) were pre-incubated in a 96-well plate for 10 min at 37 °C. Then, 50 µL of substrate (pNαGP, 0.6 mM) was added to each microtiter well and incubated for 20 min at 37 °C, and the absorbance at 405 nm was measured to detect the change in enzyme activity.
The enzyme inhibitory activity of the tested compounds was calculated as follows: α−glucosidase inhibition rate%=Abs control−Abs sample/Abs control×100
(§2) The IC50 values of the tested compounds were calculated using nonlinear fitting (logit method).

[2] = biological target: T2, α-amylase (Sus scrofa, UniProt P00690); assay: In vitro α-amylase activity assay (G3-CNP, absorbance 405 nm); type: biochemical, porcine; set-up: inhibition of α-amylase: dose or concentration left out as unconfirmed; settings: for inhibition of α-amylase: […] µM
T2 construct: α-amylase isolated from porcine pancreas; purchased Sigma-Aldrich Co. (St. Louis, MI, USA); host or cells: porcine pancreas
T2 sequence (P00690 16-511): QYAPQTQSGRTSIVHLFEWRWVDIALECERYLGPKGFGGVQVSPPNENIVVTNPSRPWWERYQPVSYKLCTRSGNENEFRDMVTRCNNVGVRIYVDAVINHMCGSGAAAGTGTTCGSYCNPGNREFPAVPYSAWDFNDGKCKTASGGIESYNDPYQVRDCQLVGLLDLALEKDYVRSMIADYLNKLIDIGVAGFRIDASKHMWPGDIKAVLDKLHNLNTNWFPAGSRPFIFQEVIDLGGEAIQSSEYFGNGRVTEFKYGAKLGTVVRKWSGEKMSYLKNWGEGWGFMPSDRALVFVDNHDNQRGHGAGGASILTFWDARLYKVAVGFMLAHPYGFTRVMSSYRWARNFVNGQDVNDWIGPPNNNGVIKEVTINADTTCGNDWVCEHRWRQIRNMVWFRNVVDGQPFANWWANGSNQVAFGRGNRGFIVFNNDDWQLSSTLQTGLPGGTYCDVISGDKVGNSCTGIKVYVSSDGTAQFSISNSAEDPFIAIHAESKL
Experimental: as §1
The in vitro α-amylase activity assay was determined spectrophotometrically as previously described with only minor modifications. A phosphate-buffer solution at pH 6.8 was configured to obtain α-amylase 5 U/mL and 2-chloro-4-nitrophenyl α-D-maltotrioside (G3-CNP) 0.6 mM. […] Gradient dilution with phosphate-buffer solution was performed to obtain sample solutions of different concentrations.
as §2

[3] = biological target: T1, α-glucosidase; assay: biochemical; type: biochemical
Experimental: To further investigate the inhibition kinetics of the candidate compounds, α-glucosidase activity was determined at different substrate concentrations. The Lineweaver-Burk expression method in Equation (1) was used to test the reaction of a series of compounds with the substrate pNαGP, and the values of maximum velocity (Vmax) and Michaelis-Menten constant (Km) were calculated.(1) 1/v=Km/Vmax1/[S]+1/Vmax where Vmax and Km are the maximum velocity of the enzyme and the Michaelis-Menten constant in the absence of inhibitor, respectively. [S] is the concentration of substrate and inhibitor.(2) Slope=Km/Vmax+Km/Vmax·KiI where v is the initial reaction rate, Vmax is the maximum initial reaction rate, [I] is the concentration of […], and Km is the Michaelis-Menten constant.

[4] = biological target: T1, α-glucosidase; assay: Synchronous fluorescence spectroscopy (RSQF); type: binding
Experimental: Changes in the microenvironment of tyrosine (Tyr) and tryptophan (Trp) residue fluorophores were detected simultaneously. The excitation and emission wavelength intervals were set to 15 nm and 60 nm, respectively, and the synchronized fluorescence spectra from 260 to 320 nm were determined. The synchronized fluorescence burst ratio (RSFQ) was calculated as follows:(7) RSQF=1−F/F0

[5] = biological target: T1, α-glucosidase; assay: Fluorescence quenching experiment (Stern-Volmer); type: binding; settings: for Kd: Ka (binding constant); for Kq (bimolecular quenching constant): given as number×10 with exponent 12
Experimental: The fluorescence quenching experiment was modified somewhat based on previous studies. Fluorescence was determined by titrating α-glucosidase (1.0 mL, 2 U/mL) with different concentrations of inhibited solutions (1.0 mL, 0–200 mM) and left to equilibrate for 5 min. […] Fluorescence burst analysis was performed based on the Stern-Volmer (3) equation.(3) F0/F=1+Kqτ0Q=1+KsvQ
F and F0 are the fluorescence intensities with and without inhibitor, respectively, Ksv is the Stern-Volmer bursting constant, Kq is the bimolecular bursting constant, and [Q] is the concentration of inhibitor.
When the bursting mode conforms to static bursting, the binding constant Ka and the number of binding sites for each enzyme can be calculated from Equation (4).(4) logF0−F/F=logKa+nlogQ
Ka is the binding constant and n is the number of binding sites.
The thermodynamic parameters ∆H, ∆S, and ∆G denote the change in heat, entropy, and free energy, respectively.

[6] = biological target: α-glucosidase; set-up: method as in ref 14 (Lim et al. 2022); settings: ref 14 (Lim et al. 2022); cited from earlier work
[7] = biological target: α-amylase; set-up: method as in ref 14 (Lim et al. 2022); settings: ref 14 (Lim et al. 2022); cited from earlier work
[8] = tested on: α-glucosidase; settings: cited from earlier work
[9] = activity label of the modeling dataset, Table S5
[10] = activity label of the modeling dataset, Table S5 (1 = active, 0 = inactive)
[11] = activity label in the 300-compound modeling dataset (Table S5), 1 = active, 0 = inactive

T1 sequence (P53341 whole entry): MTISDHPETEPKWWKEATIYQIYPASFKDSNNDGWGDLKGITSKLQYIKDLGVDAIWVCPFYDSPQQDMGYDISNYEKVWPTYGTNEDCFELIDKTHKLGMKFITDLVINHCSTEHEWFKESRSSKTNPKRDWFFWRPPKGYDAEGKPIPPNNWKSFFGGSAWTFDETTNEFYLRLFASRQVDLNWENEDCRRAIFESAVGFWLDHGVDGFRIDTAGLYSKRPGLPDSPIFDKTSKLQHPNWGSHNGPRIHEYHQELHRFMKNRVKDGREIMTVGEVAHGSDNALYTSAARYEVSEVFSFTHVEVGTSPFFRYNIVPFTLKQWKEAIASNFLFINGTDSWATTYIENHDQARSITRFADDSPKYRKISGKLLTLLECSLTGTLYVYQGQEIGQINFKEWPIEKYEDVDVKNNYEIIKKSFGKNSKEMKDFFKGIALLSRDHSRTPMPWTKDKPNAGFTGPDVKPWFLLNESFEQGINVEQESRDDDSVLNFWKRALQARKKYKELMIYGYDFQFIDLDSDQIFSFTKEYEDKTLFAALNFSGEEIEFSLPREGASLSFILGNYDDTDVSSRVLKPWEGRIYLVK

IC50 [1]: 67.8 ± 2.18 µM
inhibition at 250 µM [1]: ~100%
IC50 [2]: > 500 µM
inhibition of α-amylase [2]: minimal inhibition
Ki [3]: 61.3 ± 14.4 µM
Type of inhibition [3]: Competitive
Vmax ([3]; [I] 7.5 μM): 8.94±0.06 ×10-1µM/min
Vmax ([3]; [I] 15 μM): 8.85±0.02 ×10-1µM/min
Vmax ([3]; [I] 30 μM): 8.62±0.04 ×10-1µM/min
Vmax ([3]; [I] 50 μM): 8.81±0.03 ×10-1µM/min
Vmax ([3]; [I] 70 μM): 8.43±0.04 ×10-1µM/min
RSQF values, Trp (Δλ = 60 nm) versus Tyr (Δλ = 15 nm) [4]: significantly higher
Kd ([5]; T 300.15 K): 1.98 µM
Kd ([5]; T 305.15 K): 2.07 µM
Kd ([5]; T 310.15 K): 3.91 µM
Ksv (quenching constant) ([5]; T 300.15 K): 10.50 ±0.01 104 /M
n (number of binding sites) ([5]; T 300.15 K): 1.15
Ksv (quenching constant) ([5]; T 305.15 K): 7.67 ±0.01 104 /M
n (number of binding sites) ([5]; T 305.15 K): 1.17
Kq (bimolecular quenching constant) ([5]; T 305.15 K): 7.67 ×10^12 (M·S)-1
Ksv (quenching constant) ([5]; T 310.15 K): 5.51 ±0.01 104 /M
n (number of binding sites) ([5]; T 310.15 K): 1.15
Kq (bimolecular quenching constant) ([5]; T 310.15 K): 5.51 ×10^12 (M·S)-1
SMILES: O=[N+]([O-])c1ccccc1C1Oc2ccccc2C2CC(c3ccccc3)=NN21 (centres unmarked) [K411]

SMILES: O=c1c(O)c(-c2ccc(O)c(O)c2)oc2ccccc12 [3′,4′-dihydroxyflavonol]
IC50 [6]: 34.3 µM
IC50 [7]: 119 µM

IC50 [1]: 66.3 ± 7.17 µM
inhibition at 250 µM [1]: ~100%
IC50 [2]: > 500 µM
inhibition of α-amylase [2]: minimal inhibition
Ki [3]: 59.7 ± 10.6 µM
Type of inhibition [3]: Competitive
Vmax ([3]; [I] 7.5 μM): 11.41±0.04 ×10-1µM/min
Vmax ([3]; [I] 15 μM): 11.35±0.08 ×10-1µM/min
Vmax ([3]; [I] 30 μM): 10.92±0.06 ×10-1µM/min
Vmax ([3]; [I] 50 μM): 10.84±0.07 ×10-1µM/min
RSQF values, Trp (Δλ = 60 nm) versus Tyr (Δλ = 15 nm) [4]: significantly higher
Kd ([5]; T 300.15 K): 1.59 µM
Kd ([5]; T 305.15 K): 1.62 µM
Kd ([5]; T 310.15 K): 3.94 µM
Ksv (quenching constant) ([5]; T 300.15 K): 11.46 ±0.01 104 /M
n (number of binding sites) ([5]; T 300.15 K): 1.17
Ksv (quenching constant) ([5]; T 305.15 K): 7.99 ±0.01 104 /M
n (number of binding sites) ([5]; T 305.15 K): 1.20
Kq (bimolecular quenching constant) ([5]; T 305.15 K): 7.99 ×10^12 (M·S)-1
Ksv (quenching constant) ([5]; T 310.15 K): 6.87 ±0.01 104 /M
n (number of binding sites) ([5]; T 310.15 K): 1.14
Kq (bimolecular quenching constant) ([5]; T 310.15 K): 6.87 ×10^12 (M·S)-1
SMILES: O=C1Nc2ccc(Br)cc2/C1=C\c1nc2ccccc2c(=O)n1-c1ccc(C(=O)O)cc1 [K413]

IC50 [1]: 74.7 ± 4.1 µM
inhibition at 250 µM [1]: ~100%
IC50 [2]: > 500 µM
inhibition of α-amylase [2]: minimal inhibition
Type of inhibition [3]: Competitive
Vmax ([3]; [I] 7.5 μM): 9.17±0.04 ×10-1µM/min
Vmax ([3]; [I] 15 μM): 9.83±0.06 ×10-1µM/min
Vmax ([3]; [I] 30 μM): 9.35±0.03 ×10-1µM/min
Vmax ([3]; [I] 50 μM): 9.62±0.05 ×10-1µM/min
Vmax ([3]; [I] 70 μM): 9.48±0.02 ×10-1µM/min
RSQF values, Trp (Δλ = 60 nm) versus Tyr (Δλ = 15 nm) [4]: significantly higher
Kd ([5]; T 300.15 K): 2.51 µM
Kd ([5]; T 305.15 K): 19.6 µM
Kd ([5]; T 310.15 K): 23.8 µM
Ksv (quenching constant) ([5]; T 300.15 K): 0.59 ±0.02 104 /M
n (number of binding sites) ([5]; T 300.15 K): 1.16
Kq (bimolecular quenching constant) ([5]; T 300.15 K): 0.59 ×10^12 (M·S)-1
Ksv (quenching constant) ([5]; T 305.15 K): 0.42 ±0.04 104 /M
n (number of binding sites) ([5]; T 305.15 K): 0.99
Kq (bimolecular quenching constant) ([5]; T 305.15 K): 0.42 ×10^12 (M·S)-1
Ksv (quenching constant) ([5]; T 310.15 K): 0.39 ±0.02 104 /M
n (number of binding sites) ([5]; T 310.15 K): 0.79
Kq (bimolecular quenching constant) ([5]; T 310.15 K): 0.39 ×10^12 (M·S)-1
SMILES: COc1ccc(-c2nn(-c3ccccc3)c(C)c2-c2cc(C#N)c(C#N)cc2O)cc1 [K802]

SMILES: COc1ccc(Br)cc1-c1nnc(/N=C(/CSc2nnc3c(n2)[nH]c2ccccc23)c2ccc(-c3ccccc3)cc2)s1 [compound 165]
activity [8, 9]: 1

SMILES: CC(C)c1ccc(S(=O)(=O)NNC(=O)c2cc3cc(F)ccc3[nH]2)cc1 [compound 88]
activity [8, 10]: 0

SMILES: O=C1Nc2ccccc2/C1=N/N=C/c1ccc(OCc2cn(Cc3ccccc3)nn2)cc1 [compound 259]
activity ([8]; activity label of the 300-compound modeling dataset, Table S5): 1

SMILES: O=C(NNS(=O)(=O)c1ccc(F)cc1)c1cc2cc(F)ccc2[nH]1 [compound 207]
activity [8, 11]: 1

SMILES: O=[N+]([O-])c1ccccc1-c1nnc(/N=C(/CSc2nnc3c(n2)[nH]c2ccccc23)c2cccc([N+](=O)[O-])c2Br)s1 [compound 171]
activity [8, 9]: 1

SMILES: COc1cc(/C=C/C(=O)O)cc(-c2cc(/C=C/C(=O)O)cc(OC)c2O)c1O [compound 205]
activity [8, 11]: 1

SMILES: N#Cc1c(-c2ccc(Cl)cc2)cc(-c2cccc(Br)c2)c(C#N)c1N [compound 46]
activity [8, 10]: 0

From publication PMC12525602, “Identification of Selective α-Glucosidase Inhibitors via Virtual Screening with Machine Learning” (Molecules, 2025)
